{
  "source": "patent US20060128721A1",
  "about": "“Novel formulations of opioid-based treatments of pain comprising substituted 1,4-di-piperidin-4-yl-piperazine derivatives” (priority 2003, published 2006)",
  "key": {"[1]": {"target": "T1, cloned human h-NK1 receptors expressed in CHO cells (Homo sapiens, UniProt P25103)", "T1 construct": "expressed in transfected cells; host or cells: CHO cells", "T1 sequence (P25103 whole entry)": "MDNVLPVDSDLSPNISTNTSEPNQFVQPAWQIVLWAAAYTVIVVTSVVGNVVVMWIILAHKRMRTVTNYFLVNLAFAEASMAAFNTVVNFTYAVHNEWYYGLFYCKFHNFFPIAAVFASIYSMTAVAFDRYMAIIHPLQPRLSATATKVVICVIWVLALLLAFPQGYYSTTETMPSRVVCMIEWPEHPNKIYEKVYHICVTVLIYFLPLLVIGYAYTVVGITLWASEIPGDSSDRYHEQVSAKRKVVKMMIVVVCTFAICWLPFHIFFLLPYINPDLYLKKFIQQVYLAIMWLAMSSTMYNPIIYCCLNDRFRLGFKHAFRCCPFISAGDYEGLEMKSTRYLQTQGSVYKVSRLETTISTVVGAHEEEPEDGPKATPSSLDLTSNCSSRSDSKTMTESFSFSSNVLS", "test": "Binding experiment for h-NK1 receptors ([3H]-Substance P displacement)", "details": "read-out: h-NK1 pIC50 (converted)", "protocol": "(§1) The compounds according to the invention were investigated for interaction with various neurotransmitter receptors, ion channels and transporter binding sites using the radioligand binding technique. Membranes from tissue homogenates or from cells, expressing the receptor or transporter of interests, were incubated with a radioactively labelled substance ([^3H]- or [^125I] ligand) to label a particular receptor. […] Following incubation, labelled membranes were harvested and rinsed with excessive cold buffer to remove non-bound radioactivity by rapid filtration under suction. Membrane bound radioactivity was counted in a scintillation counter and results were expressed in counts per minute (cpm).\n(§2) The compounds were dissolved in DMSO and tested at 10 concentrations ranging from 10^−10 to 10^−5 M.\n(§3) The ability of the compounds according to the invention to displace [^3H]-Substance P from cloned human h-NK1 receptors expressed in CHO cells, to displace [^3H]-SR-48968 from cloned human h-NK2 receptors expressed in Sf9 cells, and to displace [^3H]-SR-142801 from cloned human h-NK3 receptors expressed in CHO cells was evaluated."}, "[2]": {"target": "T2, cloned human h-NK2 receptors expressed in Sf9 cells (Homo sapiens, UniProt P21452)", "T2 construct": "expressed in transfected cells; host or cells: Sf9 cells", "T2 sequence (P21452 1-398)": "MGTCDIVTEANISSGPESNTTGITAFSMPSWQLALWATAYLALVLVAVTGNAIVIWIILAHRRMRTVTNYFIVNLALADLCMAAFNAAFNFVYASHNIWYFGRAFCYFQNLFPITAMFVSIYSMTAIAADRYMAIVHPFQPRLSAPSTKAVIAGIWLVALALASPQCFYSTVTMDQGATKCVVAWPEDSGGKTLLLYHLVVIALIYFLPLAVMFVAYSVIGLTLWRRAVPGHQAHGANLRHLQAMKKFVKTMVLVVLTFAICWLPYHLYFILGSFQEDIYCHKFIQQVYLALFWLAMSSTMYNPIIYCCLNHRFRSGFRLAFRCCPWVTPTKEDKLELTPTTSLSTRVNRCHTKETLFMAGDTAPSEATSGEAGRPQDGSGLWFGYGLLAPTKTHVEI", "test": "Binding experiment for h-NK2 receptors ([3H]-SR-48968 displacement)", "details": "[3H]-SR-48968, Sf9 cells; read-out: h-NK2 pIC50 (converted)", "protocol": "as §1, §2, §3"}, "[3]": {"target": "T3, cloned human h-NK3 receptors expressed in CHO cells (Homo sapiens, UniProt P29371)", "T3 construct": "expressed in transfected cells; host or cells: CHO cells", "T3 sequence (P29371 1-465)": "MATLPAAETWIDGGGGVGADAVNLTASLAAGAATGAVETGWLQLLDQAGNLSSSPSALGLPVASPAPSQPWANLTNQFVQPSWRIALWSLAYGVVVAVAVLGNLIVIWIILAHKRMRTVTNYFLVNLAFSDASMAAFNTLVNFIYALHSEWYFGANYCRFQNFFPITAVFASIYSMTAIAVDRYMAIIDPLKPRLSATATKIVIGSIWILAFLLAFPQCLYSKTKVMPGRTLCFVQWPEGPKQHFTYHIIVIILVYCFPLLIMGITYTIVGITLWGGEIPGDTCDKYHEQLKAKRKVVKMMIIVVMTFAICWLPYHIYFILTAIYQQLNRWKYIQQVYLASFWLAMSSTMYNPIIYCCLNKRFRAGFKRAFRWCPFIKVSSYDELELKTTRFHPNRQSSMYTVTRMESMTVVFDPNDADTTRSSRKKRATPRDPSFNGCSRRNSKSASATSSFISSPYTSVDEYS", "test": "Binding experiment for h-NK3 receptors ([3H]-SR-142801 displacement)", "details": "[3H]-SR-142801, CHO cells; read-out: h-NK3 pIC50 (converted)", "protocol": "as §1, §2, §3"}},
  "data": [
    {"smiles": "Cc1cc(C)cc(C(=O)N2CCC(N3CCN(C4CCN(C(=O)c5cc(C(F)(F)F)cc(C(F)(F)F)c5)C(Cc5ccccc5)C4)CC3)CC2Cc2ccccc2)c1", "note": "(single isomer, unassigned) [Compound 10]", "values": [
      {"measurement": "IC50", "setting": "[1]", "value": 50.1, "unit": "nM"},
      {"measurement": "IC50", "setting": "[2]", "value": 398, "unit": "nM"},
      {"measurement": "IC50", "setting": "[3]", "value": 631, "unit": "nM"}
    ]},
    {"smiles": "Cc1cc(C)cc(C(=O)N2CCC(N3CCN(C4CCN(C(=O)c5cc(C(F)(F)F)cc(C(F)(F)F)c5)C(Cc5ccccc5)C4)CC3)CC2Cc2ccccc2)c1", "note": "(single isomer, unassigned) [Compound 11]", "values": [
      {"measurement": "IC50", "setting": "[1]", "value": 39.8, "unit": "nM"},
      {"measurement": "IC50", "setting": "[2]", "value": 631, "unit": "nM"},
      {"measurement": "IC50", "setting": "[3]", "value": 251, "unit": "nM"}
    ]},
    {"smiles": "O=C(c1cc(C(F)(F)F)cc(C(F)(F)F)c1)N1CCC(N2CCN(C3CCNCC3)CC2)CC1Cc1ccccc1", "note": "(stereo not drawn) [Compound 2]", "values": [
      {"measurement": "IC50", "setting": "[1]", "value": 2.51, "unit": "nM"},
      {"measurement": "IC50", "setting": "[2]", "value": 1580, "unit": "nM"},
      {"measurement": "IC50", "setting": "[3]", "value": 6310, "unit": "nM"}
    ]},
    {"smiles": "Cc1oncc1C(=O)N1CCC(N2CCN(C3CCN(C(=O)c4cc(C(F)(F)F)cc(C(F)(F)F)c4)C(Cc4ccccc4)C3)CC2)CC1", "note": "(stereo not drawn) [Compound 4]", "values": [
      {"measurement": "IC50", "setting": "[1]", "value": 1.58, "unit": "nM"},
      {"measurement": "IC50", "setting": "[2]", "value": 6310, "unit": "nM"},
      {"measurement": "IC50", "setting": "[3]", "value": 200, "unit": "nM"}
    ]},
    {"smiles": "O=C(c1ccsc1)N1CCC(N2CCN(C3CCN(C(=O)c4cc(C(F)(F)F)cc(C(F)(F)F)c4)C(Cc4ccccc4)C3)CC2)CC1", "note": "(stereo not drawn) [Compound 5]", "values": [
      {"measurement": "IC50", "setting": "[1]", "value": 0.1, "unit": "nM"},
      {"measurement": "IC50", "setting": "[2]", "value": 794, "unit": "nM"},
      {"measurement": "IC50", "setting": "[3]", "value": 501, "unit": "nM"}
    ]},
    {"smiles": "Cn1cccc1CN1CCC(N2CCN(C3CCN(C(=O)c4cc(C(F)(F)F)cc(C(F)(F)F)c4)C(Cc4ccccc4)C3)CC2)CC1", "note": "(stereo not drawn) [Compound 9]", "values": [
      {"measurement": "IC50", "setting": "[1]", "value": 1.26, "unit": "nM"},
      {"measurement": "IC50", "setting": "[2]", "value": 631, "unit": "nM"},
      {"measurement": "IC50", "setting": "[3]", "value": 501, "unit": "nM"}
    ]},
    {"smiles": "O=C(c1cc(C(F)(F)F)cc(C(F)(F)F)c1)N1CCC(N2CCN(C3CCN(C(=O)n4ccnc4)CC3)CC2)CC1Cc1ccccc1", "note": "(stereo not drawn) [Compound 12]", "values": [
      {"measurement": "IC50", "setting": "[1]", "value": 0.794, "unit": "nM"},
      {"measurement": "IC50", "setting": "[2]", "value": 1000, "unit": "nM"},
      {"measurement": "IC50", "setting": "[3]", "value": 794, "unit": "nM"}
    ]},
    {"smiles": "NC(Cc1ccc(O)cc1)C(=O)N1CCC(N2CCN(C3CCN(C(=O)c4cc(C(F)(F)F)cc(C(F)(F)F)c4)C(Cc4ccccc4)C3)CC2)CC1", "note": "(stereo not drawn) [Compound 13]", "values": [
      {"measurement": "IC50", "setting": "[1]", "value": 1.26, "unit": "nM"},
      {"measurement": "IC50", "setting": "[2]", "value": 631, "unit": "nM"},
      {"measurement": "IC50", "setting": "[3]", "value": 1000, "unit": "nM"}
    ]},
    {"smiles": "O=C(c1cc(C(F)(F)F)cc(C(F)(F)F)c1)N1CC[C@H](N2CCN(C3CCN(c4ncccn4)CC3)CC2)C[C@H]1Cc1ccccc1", "note": "[Compound 16]", "values": [
      {"measurement": "IC50", "setting": "[1]", "value": 1, "unit": "nM"},
      {"measurement": "IC50", "setting": "[2]", "value": 501, "unit": "nM"},
      {"measurement": "IC50", "setting": "[3]", "value": 158, "unit": "nM"}
    ]}
  ]
}
